SMILES strings stand for the structures.

The experiment has as its system Aβ42. The experiment in a line: In vitro cell screening assay in H4 cells expressing human APP751: Aβ42 by sandwich ELISA. The experiment is classed as cell-based. To be noted: compounds 0.003-10 μM, incubated overnight (16-18 h), sandwich ELISA of supernatant. On the procedure: Human neuroglioma H4 cells were transfected with a pcDNA3.1 plasmid expressing human wild type APP751 cDNA and a stable cell line was generated using G418 selection. Cells were plated at 15,000 cells/well in Costar 96-well plates and placed at 37° C. and 5% CO2. Six hours after plating, cells were washed three times with Pro293™ chemically defined medium, followed by addition of compounds (0.003-10 μM, final DMSO concentration of 0.33%). Plates were incubated overnight (16-18 h) and supernatant was removed for quantification of Aβ peptides by sandwich ELISA. Cytotoxicity was evaluated using Cell-Titer 96W AQueous One Solution Cell Proliferation Assay according to the manufacturer's protocol.
Aβ peptide levels were quantified by sandwich ELISA. 96-well plates were coated with C-terminal specific Aβ antibodies recognizing either Aβ37, Aβ38, Aβ40, Aβ42, Aβ43 or a N-terminal specific Aβ antibody to detect Aβ 1-x. Plates were then blocked overnight at 4° C. with 1% bovine serum albumin (BSA) in PBS-T. Plates were washed and 100 μl of cultured cell supernatant or synthetic Aβ peptide standards and a detection antibody (4G8-HRP) were applied to the blocked plate and incubated overnight at 4° C. The next day, wells were washed before the addition of detection substrate (TMB peroxidase). Plates were then read for absorbance at 450 nm on a Molecular Devices SpectraMax M5e Microplate Reader.
Compound-treated samples were normalized to samples treated with DMSO alone (no inhibition) and to samples treated with DAPT. EC50 values were calculated from values reported as percent of DMSO controls using nonlinear regression, based on a sigmoidal dose response (variable slope) model. GraphPAD software from Prism used for calculation.
(In an ELISA, binding on a coated surface is turned into a signal by an enzyme label.)
Take `COc1nc(C2=NOCC(c3cc4cccc(C)c4o3)N2)ccc1-n1cnc(C)c1` (single isomer, unassigned) [Example 7A, 3-(6-Methoxy-5-(4-methyl-1H-imidazol-1-yl)pyridin-2-yl)-5-(7-methylbenzofuran-2-yl)-5,6-dihydro-4H-1,2,4-oxadiazine]: the EC50 (as a rule, the concentration needed to bring the measured effect to its halfway point) is over 3000 nM.
To `COc1nc(C2=NOCC(c3cc4cccc(C)c4o3)N2)ccc1-n1cnc(C)c1` (single isomer, unassigned) [Example 7B, 3-(6-Methoxy-5-(4-methyl-1H-imidazol-1-yl)pyridin-2-yl)-5-(7-methylbenzofuran-2-yl)-5,6-dihydro-4H-1,2,4-oxadiazine] belongs 23.3 nM; to `COc1nc(C2=NOCC(c3ccc(Cl)cc3C)N2C)ccc1-n1cnc(C)c1` (single isomer, unassigned) [Example 27A, 5-(4-chloro-2-methylphenyl)-3-(6-methoxy-5-(4-methyl-1H-imidazol-1-yl)pyridin-2-yl)-4-methyl-5,6-dihydro-4H-1,2,4-oxadiazine], 2180 nM.
To `COc1nc(C2=NOCC(c3ccc(Cl)cc3C)N2C)ccc1-n1cnc(C)c1` (single isomer, unassigned) [Example 27B, 5-(4-chloro-2-methylphenyl)-3-(6-methoxy-5-(4-methyl-1H-imidazol-1-yl)pyridin-2-yl)-4-methyl-5,6-dihydro-4H-1,2,4-oxadiazine] belongs 61.3 nM; to `COc1nc(C2=NOCC(c3ccccc3)N2)ccc1-n1cnc(C)c1` (single isomer, unassigned) [Example 36A, 3-(6-methoxy-5-(4-methyl-1H-imidazol-1-yl)pyridin-2-yl)-5-phenyl-5,6-dihydro-4H-1,2,4-oxadiazine], 2740 nM; to `COc1nc(C2=NOCC(c3ccccc3)N2)ccc1-n1cnc(C)c1` (single isomer, unassigned) [Example 36B, 3-(6-methoxy-5-(4-methyl-1H-imidazol-1-yl)pyridin-2-yl)-5-phenyl-5,6-dihydro-4H-1,2,4-oxadiazine], 97 nM.
Next, `COc1nc(C2=NOCC(c3coc4ccccc34)N2)ccc1-n1cnc(C)c1` (single isomer, unassigned) [Example 38A, 5-(benzofuran-3-yl)-3-(6-methoxy-5-(4-methyl-1H-imidazol-1-yl)pyridin-2-yl)-5,6-dihydro-4H-1,2,4-oxadiazine]: over 3000 nM; `COc1nc(C2=NOCC(c3coc4ccccc34)N2)ccc1-n1cnc(C)c1` (single isomer, unassigned) [Example 38B, 5-(benzofuran-3-yl)-3-(6-methoxy-5-(4-methyl-1H-imidazol-1-yl)pyridin-2-yl)-5,6-dihydro-4H-1,2,4-oxadiazine]: 22.4 nM.
Consider `COc1nc(C2=NOCC(c3ccc(F)cc3)N2)ccc1-n1cnc(C)c1` (single isomer, unassigned) [Example 40A, 5-(4-fluorophenyl)-3-(6-methoxy-5-(4-methyl-1H-imidazol-1-yl)pyridin-2-yl)-5,6-dihydro-4H-1,2,4-oxadiazine], for which the EC50 is over 3000 nM.
`COc1nc(C2=NOCC(c3ccc(F)cc3)N2)ccc1-n1cnc(C)c1` (single isomer, unassigned) [Example 40B, 5-(4-fluorophenyl)-3-(6-methoxy-5-(4-methyl-1H-imidazol-1-yl)pyridin-2-yl)-5,6-dihydro-4H-1,2,4-oxadiazine] returned an EC50 of 59.5 nM.
To `COc1nc(C2=NOCC(c3ccc(Cl)cc3)N2)ccc1-n1cnc(C)c1` (single isomer, unassigned) [Example 42A, 5-(4-chlorophenyl)-3-(6-methoxy-5-(4-methyl-1H-imidazol-1-yl)pyridin-2-yl)-5,6-dihydro-4H-1,2,4-oxadiazine] belongs over 3000 nM; to `COc1nc(C2=NOCC(c3ccc(Cl)cc3)N2)ccc1-n1cnc(C)c1` (single isomer, unassigned) [Example 42B, 5-(4-chlorophenyl)-3-(6-methoxy-5-(4-methyl-1H-imidazol-1-yl)pyridin-2-yl)-5,6-dihydro-4H-1,2,4-oxadiazine], 28.3 nM.
Next, `COc1nc(C2=NOCC(c3ccc(F)c(C(F)(F)F)c3)N2)ccc1-n1cnc(C)c1` (single isomer, unassigned) [Example 44A, 5-(4-fluoro-3-(trifluoromethyl)phenyl)-3-(6-methoxy-5-(4-methyl-1H-imidazol-1-yl)pyridin-2-yl)-5,6-dihydro-4H-1,2,4-oxadiazine]: over 3000 nM; `COc1nc(C2=NOCC(c3ccc(F)c(C(F)(F)F)c3)N2)ccc1-n1cnc(C)c1` (single isomer, unassigned) [Example 44B, 5-(4-fluoro-3-(trifluoromethyl)phenyl)-3-(6-methoxy-5-(4-methyl-1H-imidazol-1-yl)pyridin-2-yl)-5,6-dihydro-4H-1,2,4-oxadiazine]: 21.6 nM; `COc1nc(C2=NOCC(c3c[nH]c4ccccc34)N2)ccc1-n1cnc(C)c1` (single isomer, unassigned) [Example 47A, 5-(1H-indol-3-yl)-3-(6-methoxy-5-(4-methyl-1H-imidazol-1-yl)pyridin-2-yl)-5,6-dihydro-4H-1,2,4-oxadiazine]: 136 nM.
Next, `COc1nc(C2=NOCC(c3c[nH]c4ccccc34)N2)ccc1-n1cnc(C)c1` (single isomer, unassigned) [Example 47B, 5-(1H-indol-3-yl)-3-(6-methoxy-5-(4-methyl-1H-imidazol-1-yl)pyridin-2-yl)-5,6-dihydro-4H-1,2,4-oxadiazine]: 23.1 nM; `COc1nc(C2=NOCC(c3ccc(C(F)(F)F)c(F)c3)N2)ccc1-n1cnc(C)c1` (single isomer, unassigned) [Example 121A, 5-(3-fluoro-4-(trifluoromethyl)phenyl)-3-(6-methoxy-5-(4-methyl-1H-imidazol-1-yl)pyridin-2-yl)-5,6-dihydro-4H-1,2,4-oxadiazine]: over 3000 nM.
`COc1nc(C2=NOCC(c3ccc(C(F)(F)F)c(F)c3)N2)ccc1-n1cnc(C)c1` (single isomer, unassigned) [Example 121B, 5-(3-fluoro-4-(trifluoromethyl)phenyl)-3-(6-methoxy-5-(4-methyl-1H-imidazol-1-yl)pyridin-2-yl)-5,6-dihydro-4H-1,2,4-oxadiazine] registered an EC50 of 21.4 nM.
In turn, `COc1nc(C2=NOCC(c3ccc(F)cc3F)N2)ccc1-n1cnc(C)c1` (single isomer, unassigned) [Example 129A, 5-(2,4-difluorophenyl)-3-(6-methoxy-5-(4-methyl-1H-imidazol-1-yl)pyridin-2-yl)-5,6-dihydro-4H-1,2,4-oxadiazine] returned an EC50 of 2780 nM.
On to `COc1nc(C2=NOCC(c3ccc(F)cc3F)N2)ccc1-n1cnc(C)c1` (single isomer, unassigned) [Example 129B, 5-(2,4-difluorophenyl)-3-(6-methoxy-5-(4-methyl-1H-imidazol-1-yl)pyridin-2-yl)-5,6-dihydro-4H-1,2,4-oxadiazine], for which the EC50 is 128 nM.
To `CCC1CON=C(c2ccc(-n3cnc(C)c3)c(OC)n2)N1` (single isomer, unassigned) [Example 133A, 5-ethyl-3-(6-methoxy-5-(4-methyl-1H-imidazol-1-yl)pyridin-2-yl)-5,6-dihydro-4H-1,2,4-oxadiazine] belongs over 3000 nM.
